{"source": "patent US20240180887A1", "about": "“USE OF PPAR(gamma) AGONISTS OR MPC INHIBITORS FOR TREATING PRIMARY, INNATE DISEASES OF THE CARDIAC MUSCLE (CARDIOMYOPATHIES)” (PREVENTAGE THERAPEUTICS GMBH, priority 2021, published 2024)", "key": {"HCM mice (αMHC^719/+) [1]": {"test_system": "HCM mice (αMHC^719/+)", "assay": "Histopathology of left ventricular myocardium, Masson's trichrome (myocardial fibrosis), experimental setup A", "type": "in vivo, mouse", "description": "FIG. 6 Histopathology of the left ventricular myocardium of wild-type (WT) and HCM mice (αMHC^719/+) with and without treatment with pioglitazone (PIO) after 6 weeks; myocardial fibrosis appears in medium gray in the Masson's trichrome-stained histological sections. […] HCM mice show massive myocardial fibrosis (white arrows in (C)).\nIn order to quantify myocardial fibrosis, the removed hearts were fixed in 4% paraformaldehyde, dehydrated, and placed in paraffin, as described above^37,42,43. 5-μm sections were stained with Masson's trichrome and hematoxylin-eosin. The extent of myocardial fibrosis was quantified by a digitized method by calculating the percentage of cardiac muscle portions stained blue with Masson's trichrome in relation to the overall stained cardiac muscle. Perivascular and intramurine structures, the endocardium, or trabeculas were excluded in the calculation of the percentage of fibrosis."}, "cardiac myosin": {"test_system": "cardiac myosin", "assay": "Mant-ATP assay of left ventricular cardiac myosins (DRX vs SRX state)", "type": "in vivo, mouse", "conditions": "αMHC^719/+ mice treated with pioglitazone vs untreated αMHC^719/+ mice", "description": "FIG. 5 Examination of the percentages of left ventricular cardiac myosins in the DRX (disordered relaxation) compared to the SRX (super-relaxed) state using a fluorescent ATP analog. […] The treatment of the HCM mouse model with pioglitazone thus also has a positive effect on the functional properties of the left ventricular heart muscle tissue. The results of this Mant-ATP assay indicate that it was possible to prevent the changes in the biophysical properties of the myosins, which are described as being the cause of hypertrophic cardiomyopathy, in the mice treated with pioglitazone.\nCardiac myosin ATPase activity was measured by Mant-ATP assay, which examines cardiomyocyte contractility and relaxation indirectly by measuring the activity of cardiac myosin ATPase. For this purpose, the Mant-ATP assay (Roche) was applied in the left ventricular myocardium of the different mouse groups, which was shock-frosted in liquid nitrogen and stored in frozen state at −80° C. Mant-ATP is a fluorescent, […] ATP that binds the head of the cardiac myosin. The assay measures the release of Mant-ATP after addition of ATP^44,45."}, "[2]": {"test_system": "Acta1, Col1a1, Col1a2, Cyba, Gdf15, Hif1a, Icam1, IL33, Mmp2, Nfkb1, Nox4, Nppa, Postn, Tgfb1, Tgfb2, Tgfb3", "assay": "mRNA expression of pro-hypertrophic, pro-fibrotic and pro-inflammatory genes in left ventricular myocardium (RNA sequencing)", "type": "in vivo, mouse", "conditions": "αMHC^719/+ mice treated with pioglitazone vs untreated, p<0.001", "protocol": "FIG. 8 The mRNA expression of pro-hypertrophic, pro-fibrotic, and pro-inflammatory genes such as Acta1, Col1a1, Col1a2, Cyba, Gdf15, Hif1a, Icam1, IL33, Mmp2, Nfkb1, Nox4, Nppa, Postn, Tgfb1, Tgfb2, and Tgfb3 is increased in the left ventricular myocardium of αMHC^719/+ HCM mice (HET) compared to wild-type mice (WT) (HET/WT). […] Strand-specific, polyA-enriched RNA sequencing was carried out as described above^51. The RNA was isolated using the AllPrep RNA Kit (Qiagen). The RNA integrity number (RIN) was determined using the Agilent 2100 BioAnalyzer (RNA 6000 Nano Kit, Agilent). In order to prepare the library, 1 μg RNA was poly(A)-selected, fragmented, and reverse-transcribed with the Elute, Prime, Fragment Mix (Illumina). […] RNA libraries were tested for quality and quantity using the Agilent 2100 BioAnalyzer and the Quant-iT PicoGreen dsDNA Assay Kit (Life Technologies). […] The STAR Aligner (version 2.4.2a)^52 with modified parameter settings (--twopassMode=Basic) was used for the split-read alignment against the […] genome assembly hg19 (GRCh37) and the UCSC knownGene annotation. HTseq-count (version 0.6.0)^53 was used to quantify the number of reads mapped to annotated genes. FPKM values (fragments per kilobase of transcript per million fragments mapped) were calculated using custom scripts. […]"}, "[3]": {"test_system": "radical oxygen species (ROS)", "assay": "Radical oxygen species (ROS) in left ventricular myocardium by electron paramagnetic resonance spectroscopy", "type": "in vivo, mouse", "conditions": "αMHC^719/+ mice treated with pioglitazone vs untreated HCM mice, 6 weeks, p=0.053", "description": "Reduction of oxidative stress: The treatment with PPARγ agonists leads to reduced expression of hypoxia-inducible factor 1-alpha, a major transcription factor in the redox signaling pathway. As a result, less radical oxygen species are produced in the left ventricular myocardium, thereby reducing cellular oxidative stress. A protective effect on the pathological remodeling of the cardiac muscle was observed.\nElectron paramagnetic resonance (EPR) was applied as described in order to calculate the production of radical oxygen species (ROS) in the left ventricular myocardium^46-48. […] The analysis of ROS generation was carried out at 37° C. for 10 minutes with 20 scans in an Escan EPR spectrometer under temperature control (Noxygen) and the following parameters: microwave power 23.89 mW; center field 3459-3466 G; steep width 10 G, frequency 9.7690 GHz and modulation amplitude 2.93 G. ROS generation was calculated by means of linear regression and normalized to the cellular protein content."}, "[4]": {"test_system": "αMHC^719/+ HCM mouse model", "assay": "Preclinical αMHC^719/+ HCM mouse model, overall summary of results", "type": "in vivo", "conditions": "oral administration in the αMHC^719/+ HCM mouse model", "protocol": "The examinations were carried out on an established HCM mouse model, in which an arginine-to-tryptophan mutation at position 719 of the heavy chain of the cardiac mouse alpha-myosin gene was effected by homologous recombination (referred to as αMHC^719/+)^38. Such genetically modified mice increasingly develop the typical pathognomonic disease characteristics of hypertrophic cardiomyopathy such as myocardial hypertrophy and fibrosis with increasing age. The phenotype of this genetically generated HCM mouse model thus simulates the phenotype of HCM patients affected^36,37,38. The manifestation of the disease can be accelerated by subcutaneous administration of the calcineurin inhibitor cyclosporin A (CsA)^9.\nBetween their 6th and 12th postnatal week, all mice were injected subcutaneously with cyclosporin A (CsA) to accelerate hypertrophic remodeling in the myocardium in the HCM mouse model^9. Half of the mice were treated with the PPARγ agonists rosiglitazone and pioglitazone from the group of thiazolidinediones between their 6th and 12th postnatal week. In their 12th postnatal week, they were subjected to in vivo transthoracic echocardiography. The animals were then euthanized for ex vivo examination (organ removal, histopathology, and determination of radical oxygen species, of mRNA and protein expression in the tissue) (see FIG. 10).D"}, "HCM mice (αMHC^719/+) [5]": {"test_system": "HCM mice (αMHC^719/+)", "assay": "Heart-to-body weight ratio ex vivo after organ removal", "type": "in vivo, mouse", "conditions": "αMHC^719/+ mice, pioglitazone 10 mg/kg of body weight/day orally, 6 weeks, vs untreated αMHC^719/+ mice, p=0.008", "protocol": "The mice were weighed and euthanized to calculate the heart-to-body weight ratio. The thorax was opened quickly, and the heart was removed and washed twice in cold PBS solution. The large vessels and connective tissue were removed, the heart was swapped dry and weighed, and the heart and body weight of the mouse were determined."}}, "note": "“Also recorded” adds a separate entry of the source.", "data": [{"smiles": "CCc1ccc(CCOc2ccc(CC3SC(=O)NC3=O)cc2)nc1", "note": "(racemic) [pioglitazone, (RS)-5-{p-[2-(5-ethyl-2-pyridyl)ethoxy]benzyl}-2,4-thiazolidinedione]", "values": [{"measurement": "myocardial fibrosis in wild-type mice", "setting": "HCM mice (αMHC^719/+) [1]; wild-type mice with treatment with pioglitazone, 6 weeks", "value": "hardly any fibrosis"}, {"measurement": "formation of myocardial fibrosis (histological sections)", "setting": "HCM mice (αMHC^719/+) [1]; αMHC^719/+ mice, pioglitazone 10 mg/kg of body weight/day orally, 6 weeks", "value": "almost completely prevents the formation of myocardial fibrosis"}, {"measurement": "fibrosis after semi-automated threshold detection of collagen (ImageJ)", "setting": "HCM mice (αMHC^719/+) [1]; αMHC^719/+ mice, pioglitazone 10 mg/kg/day orally vs untreated HCM mice, p=0.017", "value": "significantly less fibrosis"}, {"measurement": "percentages of left ventricular cardiac myosins in the DRX compared to the SRX state", "setting": "cardiac myosin", "value": "significant shift towards the SRX state; also recorded: prevents the functional biophysical changes"}, {"measurement": "overexpression of pro-hypertrophic, pro-fibrotic and pro-inflammatory genes (HET+PIO/HET)", "setting": "[2]", "value": "significantly reduced or completely prevented; also recorded: prevents"}, {"measurement": "production of radical oxygen species in the left ventricular myocardium", "setting": "[3]", "value": "significantly decreased"}, {"measurement": "production of radical oxygen species in the left ventricular myocardium", "setting": "[3]; listed as poglitazone", "value": "significantly reduced"}, {"measurement": "changes in biophysical properties in the heart muscle cell and onset of myocardial hypertrophy and fibrosis", "setting": "[4]", "value": "largely prevents"}, {"measurement": "development of myocardial hypertrophy (heart-to-body weight ratio ex vivo)", "setting": "HCM mice (αMHC^719/+) [5]", "value": "completely inhibited"}]}]}
